This note sets out measurements from patent publication US8722649B2, “Alpha-chloro and alpha-bromo phosphonate analogs of lysophosphatidic acid and methods of making and using thereof” (University of Utah Research Foundation, priority 2007, dated 2014).

Read-outs that look alike come from different tables or passages of the source.

In one experiment the target is T1, human LPA1 (Homo sapiens, UniProt Q92633).
T1 construct: expressed in transfected cells
In words: Ca2+ mobilization assay, LPA1. It is filed as cell-based. Particulars: for EC50: RH7777 cells stably expressing LPA1, agonist mode; for IC50 / Ki: antagonist mode vs 200 nM LPA; for IC50: PA = partial antagonist, read-out: LPA1 IC50; for Ki: read-out: LPA1 (Ki). As to the method:
(§1) Receptor activation using Ca^2+ mobilization assay for diastereomers of 1 (also represented as 19b). The rat hepatoma (RH7777) cell lines individually expressing either LPA1, LPA2, LPA3 or LPA5 receptors and Chinese hamster ovary (CHO) cell line were analyzed to examine agonism and antagonism. […] CHO cells stably expressing either vector or LPA4 were kindly gifted from Dr. Shimizu (University of Tokyo, Tokyo, Japan).
(§2) Stable transformants of LPA1/2/3 receptors. RH7777 cells stably expressing each receptor were plated onto poly-L-lysine (PLL) (0.1 mg/mL)-coated black-wall clear-bottom 96-well plates (Corning Incorporated Life Sciences, Acton, Mass.) at a density of 5×10^4 cells/well and cultured overnight. The following day, the culture medium was replaced with modified Krebs buffer (120 mM NaCl, 5 mM KCl, 0.62 mM MgSO4, 1.8 mM CaCl2, 10 mM HEPES, 6 mM glucose, pH 7.4), and the cells were serum starved for 6 h. Subsequently, cells were loaded with Fura-2 AM (Invitrogen, Carlsbad, Calif.) for 35 min in modified Krebs buffer containing 2% (v/v) pluronic acid.
(§3) After incubating the cells with Fura-2 AM, the cells were rinsed with Krebs buffer and changes in the intracellular Ca^2+ concentration were monitored by determining the ratio of emitted light intensities at 520 nm in response to excitation at 340 and 380 nm using FLEXstation II (Molecular Devices, Sunnyvale, Calif.). Each well was monitored for 80-120 sec. For testing agonist activity of the compounds, the test compounds were added automatically after 15 sec of baseline measurement. To determine antagonist properties, varying concentrations of the compounds were mixed with a constant concentration of LPA and responses were monitored. Each test was performed in quadruplicate. EC50, IC50, and Ki values were calculated by fitting a sigmoid function to data points with the nonlinear curve-fitting feature of KaleidaGraph (Synergy Software, Essex Junction, Vt.).
Receptor activation using Ca^2+ mobilization assay. The assay for mobilization of intracellular Ca^2+ was performed as described. Briefly, rat hepatoma RH7777 cells stably expressing human LPA1, LPA2, or LPA3, and CHO cells stably expressing LPA4, were loaded with Fura-2 AM (Molecular Probes). Using a FLEXStation (Molecular Devices, Sunnyvale, Calif.), changes in intracellular Ca^2+ concentration were monitored. Ligand-induced changes in fluorescence were monitored for 80-120 seconds. Ca^2+ transients were quantified automatically by calculating the difference between maximum and baseline ratio values for each sample. To determine antagonist properties, different concentrations of each analogue were mixed with either palmitoyl (16:0) or oleoyl (18:1) LPA (200 nM for LPA1 and LPA3, 10 nM for LPA2, and 400 nM for LPA4) (Avanti Polar Lipids, Inc., […], Ala.) and responses were recorded. Each test was performed in quadruplicate. EC50, IC50, and Ki values were calculated as described. The ligand properties of the compounds were evaluated using Ca^2+ mobilization assay for assessing the activation/inhibition of LPA1, LPA2, and LPA3 expressed in RH7777 cells and LPA4 expressed in CHO cells. Table l illustrates calcium responses elicited through the activation of human LPA1, LPA2, LPA3 and LPA4 receptors. These cell lines have been used extensively for the characterization of LPA GPCR ligands because RH7777 cells are intrinsically unresponsive to LPA and CHO cells show minimal endogenous responses to LPA unless transfected with LPA4.

The target of a further experiment is T2, human LPA2 (Homo sapiens, UniProt Q9HBW0).
T2 construct: expressed in transfected cells
T2 sequence (Q9HBW0 whole entry): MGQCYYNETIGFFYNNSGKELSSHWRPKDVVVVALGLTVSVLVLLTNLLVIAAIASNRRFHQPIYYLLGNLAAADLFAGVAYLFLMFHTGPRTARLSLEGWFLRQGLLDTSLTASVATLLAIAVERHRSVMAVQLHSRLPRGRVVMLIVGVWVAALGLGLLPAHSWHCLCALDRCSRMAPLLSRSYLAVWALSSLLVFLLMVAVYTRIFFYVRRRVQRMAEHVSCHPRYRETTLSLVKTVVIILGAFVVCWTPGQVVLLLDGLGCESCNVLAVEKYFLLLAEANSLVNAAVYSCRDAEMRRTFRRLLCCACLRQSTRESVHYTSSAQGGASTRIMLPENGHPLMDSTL
In words: Ca2+ mobilization assay, LPA2. It is filed as cell-based. To be noted: for EC50: RH7777 cells stably expressing LPA2, agonist mode; for IC50: read-out: LPA2 IC50; for Ki: read-out: LPA2 (Ki). The procedure:
as §1, §2
as §3, with “To determine antagonist properties, varying concentrations of the compounds were mixed with a constant concentration of LPA and responses were monitored.” left out
(§4) Receptor activation using Ca^2+ mobilization assay. The assay for mobilization of intracellular Ca^2+ was performed as described. Briefly, rat hepatoma RH7777 cells stably expressing human LPA1, LPA2, or LPA3, and CHO cells stably expressing LPA4, were loaded with Fura-2 AM (Molecular Probes). Using a FLEXStation (Molecular Devices, Sunnyvale, Calif.), changes in intracellular Ca^2+ concentration were monitored. Ligand-induced changes in fluorescence were monitored for 80-120 seconds. Ca^2+ transients were quantified automatically by calculating the difference between maximum and baseline ratio values for each sample. […] Each test was performed in quadruplicate. EC50, IC50, and Ki values were calculated as described. The ligand properties of the compounds were evaluated using Ca^2+ mobilization assay for assessing the activation/inhibition of LPA1, LPA2, and LPA3 expressed in RH7777 cells and LPA4 expressed in CHO cells.
Background: Calcium flux is commonly read through the fluorescence of an indicator in the cells.

In another experiment the target is T3, human LPA3 (Homo sapiens, UniProt Q9UBY5).
T3 construct: expressed in transfected cells
T3 sequence (Q9UBY5 1-353): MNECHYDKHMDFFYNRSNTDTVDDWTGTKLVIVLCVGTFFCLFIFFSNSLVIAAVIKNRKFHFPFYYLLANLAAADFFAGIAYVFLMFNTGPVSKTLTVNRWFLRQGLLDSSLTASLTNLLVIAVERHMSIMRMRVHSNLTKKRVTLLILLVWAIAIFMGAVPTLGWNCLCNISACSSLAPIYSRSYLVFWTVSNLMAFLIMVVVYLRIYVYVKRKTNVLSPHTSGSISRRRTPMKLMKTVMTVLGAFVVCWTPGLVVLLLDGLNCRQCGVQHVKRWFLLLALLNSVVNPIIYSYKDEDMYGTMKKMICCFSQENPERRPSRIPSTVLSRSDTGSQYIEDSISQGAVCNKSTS
In words: Ca2+ mobilization assay, LPA3. The class given is cell-based. To be noted: for EC50: RH7777 cells stably expressing LPA3, agonist mode; for Emax: Emax = (maximal efficacy of compound/maximal efficacy of LPA 18:1) × 100. As to the method:
as §1, §2
as §3, with “To determine antagonist properties, varying concentrations of the compounds were mixed with a constant concentration of LPA and responses were monitored.” left out
as §4

The target in another experiment is T4, human LPA4 (Homo sapiens, UniProt Q99677).
T4 construct: expressed in transfected cells
T4 sequence (Q99677 whole entry): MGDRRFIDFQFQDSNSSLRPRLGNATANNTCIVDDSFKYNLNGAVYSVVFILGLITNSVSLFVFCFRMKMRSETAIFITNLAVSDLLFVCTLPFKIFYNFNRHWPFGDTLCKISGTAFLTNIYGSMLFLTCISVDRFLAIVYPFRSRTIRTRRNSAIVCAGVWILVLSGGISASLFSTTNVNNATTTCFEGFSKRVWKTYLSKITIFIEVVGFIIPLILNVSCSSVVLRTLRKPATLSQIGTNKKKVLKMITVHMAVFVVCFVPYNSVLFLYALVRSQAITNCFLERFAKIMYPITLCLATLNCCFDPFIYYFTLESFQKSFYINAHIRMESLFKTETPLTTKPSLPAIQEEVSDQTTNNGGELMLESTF
Put plainly: Ca2+ mobilization assay, LPA4 in CHO cells. It is filed as cell-based. Particulars: for EC50: CHO cells stably expressing LPA4, agonist mode. As to the method:
as §1
Stable transformants of LPA4. CHO cells stably expressing either vector or LPA4 were plated on non-coated 96 well plates at a density of 4×10^4 cells/well and cultured overnight. The following day, cells were loaded with Fura-2 AM for 1 h in modified Krebs buffer containing 2% (v/v) pluronic acid and 2.5 mM probenecid.
as §3, with “To determine antagonist properties, varying concentrations of the compounds were mixed with a constant concentration of LPA and responses were monitored.” left out
as §4

The target of a further experiment is T5, recombinant ATX-HA (Homo sapiens, UniProt Q13822).
T5 construct: HA
Put plainly: Autotaxin assay (FS-3 hydrolysis). It is filed as biochemical. To be noted: 10.0 μM, FS-3 substrate, preliminary single-dose screen; for inhibition at 10 µM: read-out: Inhibition (%) of autotaxin (ATX) phosphodiesterase activity. As to the method:
Autotaxin Assay. This assay utilizes FS-3 (Echelon Biosciences, Inc. Salt Lake City, Utah) as substrate and recombinant ATX-HA. For analysis, 50 μl of ATX-HA (0.25 μg) in assay buffer (Tris 50 mM, NaCl 140 mM, KCl 5mM, CaCl2 1 mM, MgCl2 1 mM, pH 8.0) was mixed with 25 μl of FS-3 (1 μM final concentration in assay buffer) and 25 μl of test compound dissolved in assay buffer containing 1:1.5 bovine serum albumin in 96-well plate. FS-3 fluorescence was monitored using FLEXstation fluorescence plate reader at a time zero and after 2 hours of incubation at 37° C. at excitation and emission wavelengths of 485 nm and 538 nm, respectively. Data was normalized to the corresponding vehicle control and the mean±standard deviation of triplicate wells were expressed as percent ATX inhibition. IC50, and Ki values were calculated as described.

The mark [1] stands for this setting: antagonist mode vs 10 nM LPA, PA = partial antagonist.

T1 sequence (Q92633 whole entry): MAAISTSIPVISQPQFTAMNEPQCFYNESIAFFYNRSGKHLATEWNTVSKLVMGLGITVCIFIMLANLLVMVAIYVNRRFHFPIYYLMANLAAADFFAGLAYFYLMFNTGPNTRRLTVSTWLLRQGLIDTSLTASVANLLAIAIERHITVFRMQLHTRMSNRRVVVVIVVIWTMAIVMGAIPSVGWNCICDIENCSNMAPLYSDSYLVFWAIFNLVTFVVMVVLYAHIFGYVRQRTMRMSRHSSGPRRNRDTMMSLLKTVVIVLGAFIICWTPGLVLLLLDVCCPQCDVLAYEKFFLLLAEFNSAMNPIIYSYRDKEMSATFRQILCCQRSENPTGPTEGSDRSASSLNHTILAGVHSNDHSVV

The EC50 is the concentration giving half of the maximal effect. As a reminder, the IC50 is the concentration that inhibits the measured activity by half. For `CCCCCCCCCCCCCCCC(=O)OCC(O)CC(O)P(=O)([O-])O.[Na+]` (centres unmarked) [Compound 24b, reference compound], the EC50 at human LPA1, at human LPA2, on human LPA3 and on human LPA4 was above 30 µM in each case. For the same compound, the IC50 at human LPA1 was above 30 µM. The “Inhibition (%) of autotaxin (ATX) phosphodiesterase activity” value (“Inhibition (%) of autotaxin” below) at recombinant ATX-HA is listed as 43.4%.
As for `CCCCCC/C=C\CCCCCCCC(=O)OCC1COP(=O)(O)C1` (centres unmarked) [2ccPA (16:1), 2-carba cyclic phosphatidic acid 16:1, reference compound], the “Inhibition (%) of autotaxin” value at recombinant ATX-HA was 78.5 ± 2.3%.
For `CCCCCCCCCCCCCCCC(=O)OCC(O)CC(O)P(=O)([O-])O.[Na+]` (centres unmarked) [Compound 24a, reference compound], the EC50 on human LPA1, at human LPA2, on human LPA3 and at human LPA4 was above 30 µM throughout. Moreover, the IC50 on human LPA1 was above 30 µM. Also, the “Inhibition (%) of autotaxin” value on recombinant ATX-HA turned out to be 56.6%.
As a reminder, the Emax is the greatest response seen or fitted, relative to the assay's reference. For orientation: Ki means a measure of affinity in units of concentration, obtained from inhibition or displacement. The term inhibition denotes the percentage by which the read-out fell short of the control. Take `CCCCCCCC/C=C\CCCCCCCC(=O)OC[C@@H](O)CC(Cl)P(=O)(O)O` (mixture of isomers) [Compound 18a, [1-Chloro-3(S)-hydroxyl-4-(oleoyloxy)butyl]-phosphonate]: the Emax was 63.2% at human LPA1 (Emax = (maximal efficacy of compound/maximal efficacy of LPA 18:1) × 100); 63.5% on human LPA3; 40.5% on human LPA4 (CHO, Emax = (maximal efficacy of compound/maximal efficacy of LPA 18:1) × 100). For the same compound, the EC50 at human LPA1 is 0.528 µM; at human LPA2, above 30 µM; at human LPA3 it was above 2.67 µM; at human LPA4, 3.48 ± 0.561 µM. In addition, the IC50 is above 30 µM at human LPA1, 1.69 ± 0.085 µM at human LPA2 (setting [1]) and 1.7 µM at human LPA2 (antagonist of the LPA2 receptor). At human LPA2 (antagonist mode vs 10 nM LPA), the Ki is 0.845 µM. The inhibition at 10 µM on recombinant ATX-HA came to 92.5 ± 2.1%.
With `CCCCCCCC/C=C\CCCCCCCC(=O)OC[C@@H](O)CC(Br)P(=O)(O)O` (mixture of isomers) [Compound 19a, [1-Bromo-3(S)-hydroxyl-4-(oleoyloxy)butyl]-phosphonate], the EC50 at human LPA1 is above 30 µM; at human LPA2 it was above 30 µM; at human LPA3 it was above 2.47 µM; on human LPA4, above 30 µM. In addition, the figures for the IC50 at human LPA1, at human LPA2 (setting [1]) and on human LPA4 were 1.62 ± 0.116 µM, 0.815 ± 0.06 µM and 4 ± 0.424 µM, respectively. The Ki on human LPA1 was found to be 0.694 µM; at human LPA2 (antagonist mode vs 10 nM LPA), 0.174 µM; at human LPA4 (antagonist mode vs 400 nM LPA), 2.5 µM. Moreover, the Emax at human LPA3 is 44.2%. Moreover, the “Inhibition (%) of autotaxin” value on recombinant ATX-HA came to 90.7 ± 2.3%. Also, the inhibition at 10 µM on recombinant ATX-HA was above 90%.
With `CCCCCCCCCCCCCCCC(=O)OC[C@@H](O)CC(Cl)P(=O)(O)O` (mixture of isomers) [Compound 18b, [1-Chloro-3(S)-hydroxyl-4-(palmitoyloxy)butyl]-phosphonate], the EC50 at human LPA1, at human LPA2, on human LPA3 and at human LPA4 was above 30 µM in each case. For the same compound, the IC50 on human LPA1 was 2.49 ± 0.69 µM; on human LPA2 (setting [1]), 0.855 µM; at human LPA3 (read-out: LPA3 IC50), 0.175 µM. Further, the Ki at human LPA1 was 0.919 µM; on human LPA2 (antagonist mode vs 10 nM LPA), 0.428 µM; on human LPA3 (antagonist mode vs 200 nM LPA, read-out: LPA3 (Ki)), 0.0983 µM. Besides, the inhibition at 30 µM at human LPA4 (CHO, read-out: LPA4 inhibition of 400 nM LPA response) amounted to 80%. The inhibition at 10 µM on recombinant ATX-HA was 83 ± 2.1%.
